Laboratory results as given in patent publication US7439027B2, “Method for modulating process mediated by farnesoid activated receptors” (The Salk Institute for Biological Studies, priority 1995, dated 2008).

How the values were obtained:
[1] = molecular target: T1, FAR-RXRα complex (rat FAR and human RXRα) (Rattus norvegicus, UniProt Q62735, D356M/DEL339-355/E357R/INS337LPDTQTCWKKEFERAAS); experiment: hsp27-EcRE×5 MTV-luciferase reporter cotransfection in CV-1 cells expressing FAR and RXRα; type: cell-based; settings: for activation of FAR-RXRα complex, hsp27 EcRE reporter: FIG. 5C
T1 construct: expressed in transfected cells; host or cells: CV-1 cells, CMV-driven expression vectors
T1 sequence (Q62735 1-469): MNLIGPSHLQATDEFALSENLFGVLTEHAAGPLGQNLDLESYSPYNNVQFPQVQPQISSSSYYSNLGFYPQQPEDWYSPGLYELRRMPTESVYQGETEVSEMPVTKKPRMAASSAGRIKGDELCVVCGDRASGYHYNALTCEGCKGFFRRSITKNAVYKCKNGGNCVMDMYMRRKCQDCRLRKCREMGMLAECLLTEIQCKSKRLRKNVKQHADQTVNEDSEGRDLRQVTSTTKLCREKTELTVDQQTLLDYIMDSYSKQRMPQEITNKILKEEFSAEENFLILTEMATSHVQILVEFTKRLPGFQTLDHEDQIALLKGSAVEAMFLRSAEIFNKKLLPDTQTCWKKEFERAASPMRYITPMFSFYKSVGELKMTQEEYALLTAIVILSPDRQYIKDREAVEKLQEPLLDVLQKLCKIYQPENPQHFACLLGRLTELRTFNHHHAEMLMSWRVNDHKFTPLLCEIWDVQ
T1 sequence (P19793 1-462 partner): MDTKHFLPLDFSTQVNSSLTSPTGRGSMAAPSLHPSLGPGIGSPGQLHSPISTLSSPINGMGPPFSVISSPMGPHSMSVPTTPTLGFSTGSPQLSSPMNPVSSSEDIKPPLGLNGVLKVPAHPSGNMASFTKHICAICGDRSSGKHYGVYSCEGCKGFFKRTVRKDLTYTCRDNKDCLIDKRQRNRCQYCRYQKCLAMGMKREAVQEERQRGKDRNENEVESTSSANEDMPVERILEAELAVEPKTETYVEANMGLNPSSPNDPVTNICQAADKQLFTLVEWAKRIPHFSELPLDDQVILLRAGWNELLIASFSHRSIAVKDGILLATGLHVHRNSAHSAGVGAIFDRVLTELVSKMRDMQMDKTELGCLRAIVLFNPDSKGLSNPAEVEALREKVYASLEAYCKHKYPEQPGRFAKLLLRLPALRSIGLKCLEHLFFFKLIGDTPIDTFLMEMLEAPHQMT
Description: Thus, CV-1 cells were grown in DMEM supplemented with 10% AG1-X8 resin-charcoal stripped calf bovine serum, 50 U/ml penicillin G and 50 μg/ml streptomycin sulfate (DMEM-CBS) at 37° C. in 5% CO2. One day prior to transfection, cells were plated to 50-80% confluence using phenol-red free DMEM with 10% resin charcoal stripped fetal bovine serum (DMEM-FBS). Cells were transfected (with reporter construct (300 ng/10^5 cells), cytomegalovirus driven receptor (100 ng/10^5 cells) and β-galactosidase expression vectors (500 ng/10^5 cells) as indicated in FIG. 4) by lipofection using N-{2-(2,3)-dioleoyloxy)propyl-N,N,N-trimethyl ammonium methyl sulfate} according to the manufacturer's instructions (DOTAP, Boehringer Mannheim). […] Cells were harvested and assayed for luciferase and β-galactosidase activity. […] Data points were normalized for differences in transfection efficiency using β-galactosidase, and plotted as relative activity where the untreated reporter is defined to have an activity of 1 unit.
(§1) Based on the identification of an EcRE as a DNA target, a reporter plasmid was constructed containing 5 copies of the hsp27 response element linked to a truncated mouse mammary tumor virus promoter (Yao et al., Nature 366:476-479 (1993)). This reporter was cotransfected into CV-1 cells alone, or with expression vectors for FAR and/or RXRα. Cotransfected cells were treated with a variety of potential ligands and monitored for changes in luciferase activity.
Thus, with reference to FIG. 5A, CV-1 cells were transiently transfected with hsp27-EcRE×5 MTV-luciferase alone (−) or with expression vectors for rat FAR and/or human RXRα. Reporter activity was assayed after treating cells with or without 50 μM JH III.
CV-1 cells were transiently transfected as described above with reference to FIG. 5A, but treated with or without 50 μM JH III, 100 nM LG69 and JH III+LG69.
Thus, CV-1 cells were transiently transfected with expression vectors for rat FR and human RXRα, as described above in Example 3. […] Data is plotted in FIG. 6A as fold activation relative to untreated cells.

rat FAR = molecular target: T2, rat FAR (Rattus norvegicus, UniProt Q62735, D356M/DEL339-355/E357R/INS337LPDTQTCWKKEFERAAS); experiment: hsp27-EcRE×5 MTV-luciferase reporter in CV-1 cells expressing FAR alone; type: cell-based; settings: 50 μM JH III; FIG. 5A
T2 construct: expressed in transfected cells; host or cells: CV-1 cells, CMV-driven expression vector
T2 sequence (Q62735 1-469 INS337LPDTQTCWKKEFERAAS/DEL339-355/D356M/E357R): T1 sequence (Q62735 1-469)
Description: Thus, CV-1 cells were grown in DMEM supplemented with 10% AG1-X8 resin-charcoal stripped calf bovine serum, 50 U/ml penicillin G and 50 μg/ml streptomycin sulfate (DMEM-CBS) at 37° C. in 5% CO2. One day prior to transfection, cells were plated to 50-80% confluence using phenol-red free DMEM with 10% resin charcoal stripped fetal bovine serum (DMEM-FBS). Cells were transfected (with reporter construct (300 ng/10^5 cells), cytomegalovirus driven receptor (100 ng/10^5 cells) and β-galactosidase expression vectors (500 ng/10^5 cells) as indicated in FIG. 4) by lipofection using N-{2-(2,3)-dioleoyloxy)propyl-N,N,N-trimethyl ammonium methyl sulfate} according to the manufacturer's instructions (DOTAP, Boehringer Mannheim). […] Cells were harvested and assayed for luciferase and β-galactosidase activity. All points were performed in triplicate and varied by less than 10%. Experiments were repeated three or more time with similar results. […]
as §1, with “This reporter was cotransfected into CV-1 cells alone, or with expression vectors for FAR and/or RXRα.” left out, “activity. […]” for “activity.”

Drosophila G-EcR+USP = experiment: G-EcR+USP / hsp27-EcRE×5 MTV luciferase reporter; type: cell-based; settings: 50 μM JH III; FIG. 5B
Description: (§2) Thus, CV-1 cells were grown in DMEM supplemented with 10% AG1-X8 resin-charcoal stripped calf bovine serum, 50 U/ml penicillin G and 50 μg/ml streptomycin sulfate (DMEM-CBS) at 37° C. in 5% CO2. One day prior to transfection, cells were plated to 50-80% confluence using phenol-red free DMEM with 10% resin charcoal stripped fetal bovine serum (DMEM-FBS). Cells were transfected (with reporter construct (300 ng/10^5 cells), cytomegalovirus driven receptor (100 ng/10^5 cells) and β-galactosidase expression vectors (500 ng/10^5 cells) as indicated in FIG. 4) by lipofection using N-{2-(2,3)-dioleoyloxy)propyl-N,N,N-trimethyl ammonium methyl sulfate} according to the manufacturer's instructions (DOTAP, Boehringer Mannheim). […] Cells were harvested and assayed for luciferase and β-galactosidase activity. All points were performed in triplicate and varied by less than 10%. Experiments were repeated three or more time with similar results. Data points were normalized for differences in transfection efficiency using β-galactosidase, and plotted as relative activity where the untreated reporter is defined to have an activity of 1 unit. […]

ornithine decarboxylase = settings: 100 μM; bovine lymphocytes; cited from earlier work
human T3Rβ = molecular target: T3, human T3Rβ (Homo sapiens, UniProt P10828); experiment: T3Rβ / TREp×2-TK luciferase reporter; type: cell-based; settings: 50 μM JH III; FIG. 5B
T3 construct: expressed in transfected cells
T3 sequence (P10828 1-461): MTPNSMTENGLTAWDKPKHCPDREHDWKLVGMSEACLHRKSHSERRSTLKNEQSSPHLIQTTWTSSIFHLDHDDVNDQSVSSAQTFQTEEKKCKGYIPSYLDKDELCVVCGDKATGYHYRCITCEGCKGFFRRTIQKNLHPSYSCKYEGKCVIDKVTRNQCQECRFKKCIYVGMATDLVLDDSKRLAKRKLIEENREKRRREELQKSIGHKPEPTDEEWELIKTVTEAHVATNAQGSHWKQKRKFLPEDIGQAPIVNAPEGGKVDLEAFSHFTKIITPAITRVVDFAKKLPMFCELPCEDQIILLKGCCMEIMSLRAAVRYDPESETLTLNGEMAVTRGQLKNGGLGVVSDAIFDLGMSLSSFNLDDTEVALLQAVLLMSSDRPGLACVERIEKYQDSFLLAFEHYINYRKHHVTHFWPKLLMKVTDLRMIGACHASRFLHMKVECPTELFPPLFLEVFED
Description: as §2

[2] = molecular target: T1, FAR-RXRα complex (rat FAR and human RXRα); experiment: hsp27-EcRE×5 MTV-luciferase reporter cotransfection in CV-1 cells expressing FAR and RXRα; type: cell-based; settings: JH III; parental MTV reporter without EcREs
human RARα = molecular target: T4, human RARα (Homo sapiens, UniProt P10276); experiment: RARα / DR5×2-TK luciferase reporter; type: cell-based; settings: 50 μM JH III; FIG. 5B
T4 construct: expressed in transfected cells
T4 sequence (P10276 1-462): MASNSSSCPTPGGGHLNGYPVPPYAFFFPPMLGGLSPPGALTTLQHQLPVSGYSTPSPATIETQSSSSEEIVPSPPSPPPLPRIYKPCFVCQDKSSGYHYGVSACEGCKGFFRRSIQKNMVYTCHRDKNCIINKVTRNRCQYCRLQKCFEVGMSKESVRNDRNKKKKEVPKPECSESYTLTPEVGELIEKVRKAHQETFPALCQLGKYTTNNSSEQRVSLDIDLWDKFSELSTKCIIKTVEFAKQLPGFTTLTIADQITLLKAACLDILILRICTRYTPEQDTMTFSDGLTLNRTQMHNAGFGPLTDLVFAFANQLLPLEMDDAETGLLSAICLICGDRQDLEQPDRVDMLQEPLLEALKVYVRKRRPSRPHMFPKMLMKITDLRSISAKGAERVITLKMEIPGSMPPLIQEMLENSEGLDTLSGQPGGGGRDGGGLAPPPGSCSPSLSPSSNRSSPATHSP
Description: as §2

human RXRα = molecular target: T5, human RXRα (Homo sapiens, UniProt P19793); experiment: luciferase reporter in CV-1 cells expressing RXRα alone (hsp27-EcRE×5 MTV; CRBPII-TK); type: cell-based; settings: 50 μM JH III; FIGS. 5A and 5B
T5 construct: expressed in transfected cells; host or cells: CV-1 cells, CMV-driven expression vector
T5 sequence (P19793 1-462): T1 sequence (P19793 1-462 partner)
Description: Thus, CV-1 cells were grown in DMEM supplemented with 10% AG1-X8 resin-charcoal stripped calf bovine serum, 50 U/ml penicillin G and 50 μg/ml streptomycin sulfate (DMEM-CBS) at 37° C. in 5% CO2. One day prior to transfection, cells were plated to 50-80% confluence using phenol-red free DMEM with 10% resin charcoal stripped fetal bovine serum (DMEM-FBS). Cells were transfected (with reporter construct (300 ng/10^5 cells), cytomegalovirus driven receptor (100 ng/10^5 cells) and β-galactosidase expression vectors (500 ng/10^5 cells) as indicated in FIG. 4) by lipofection using N-{2-(2,3)-dioleoyloxy)propyl-N,N,N-trimethyl ammonium methyl sulfate} according to the manufacturer's instructions (DOTAP, Boehringer Mannheim). […] Cells were harvested and assayed for luciferase and β-galactosidase activity. All points were performed in triplicate and varied by less than 10%. Experiments were repeated three or more time with similar results. Data points were normalized for differences in transfection efficiency using β-galactosidase, and plotted as relative activity where the untreated reporter is defined to have an activity of 1 unit.
Thus, with reference to FIG. 5A, CV-1 cells were transiently transfected with hsp27-EcRE×5 MTV-luciferase alone (−) or with expression vectors for rat FAR and/or human RXRα. Reporter activity was assayed after treating cells with or without 50 μM JH III. […]

C[C@H](CCC1OC1(C)C)[C@H]1CC[C@H]2[C@@H]3CC=C4C[C@@H](O)CC[C@]4(C)[C@H]3CC[C@]12C (some centres unmarked) [24,25-epoxycholesterol]
activation of FAR-RXRα (in words) ([1]; 50 μM, FIG. 6A): little or no activation

C[C@H](CCCC(C)(C)O)[C@H]1CC[C@H]2[C@@H]3CC=C4C[C@@H](O)CC[C@]4(C)[C@H]3CC[C@]12C [25-hydroxycholesterol]
activation of FAR-RXRα (in words) ([1]; 10 μM): little or no activation

COC(=O)/C=C(\C)CC/C=C(\C)CCC1OC1(C)C (stereo not drawn) [JH III, cis-10,11-epoxy-3,7,11-trimethyl-trans-trans-2,6-dodecadienoic acid methyl ester]
activation of FAR alone (rat FAR): fails to activate
activation of ecdysone receptor (EcR+USP) (Drosophila G-EcR+USP): failed to activate
induction of luciferase activity ([1]; 50 μM JH III, CV-1 cells expressing both FAR and RXRα, FIG. 5A): 10 fold
activation of FAR-RXRα complex, hsp27 EcRE reporter ([1]; 50 μM JH III): 17 fold
antagonism of induction of ornithine decarboxylase by phorbol esters and phytohemagglutinin (ornithine decarboxylase): can be antagonized
activation of thyroid hormone receptor (T3R) (human T3Rβ): failed to activate
activation of FAR-RXR complexes using parental MTV reporter construct lacking the EcREs [2]: failed to activate
activation of all-trans retinoic acid receptor (RAR) (human RARα): failed to activate
activation of RXRα alone (human RXRα): fails to activate

CC=C(c1ccc(C(=O)O)cc1)c1cc2c(cc1C)C(C)(C)CCC2(C)C [LG69, (4-{1-3,5,5,8,8-pentamethyl-5,6,7,8-tetrahydro-2-napthalenyl)-1-propenyl}benzoic acid]
activation of FAR-RXRα complex, hsp27 EcRE reporter ([1]; 100 nM LG69): 76 fold

CC(C)=CCCC(C)=CCCC(C)=CC=O [farnesal]
activation of FAR-RXRα (in words) ([1]; 50 μM, FIG. 6A): weaker activity

CC(C)=CCCC(C)=CCCC(C)=CC(=O)O [farnesoic acid]
activation of FAR-RXRα (in words) ([1]; 50 μM, FIG. 6A): little or no activation
